One test deals with T1, Human A2BR (Homo sapiens, UniProt P29275).
T1 sequence (P29275 1-332): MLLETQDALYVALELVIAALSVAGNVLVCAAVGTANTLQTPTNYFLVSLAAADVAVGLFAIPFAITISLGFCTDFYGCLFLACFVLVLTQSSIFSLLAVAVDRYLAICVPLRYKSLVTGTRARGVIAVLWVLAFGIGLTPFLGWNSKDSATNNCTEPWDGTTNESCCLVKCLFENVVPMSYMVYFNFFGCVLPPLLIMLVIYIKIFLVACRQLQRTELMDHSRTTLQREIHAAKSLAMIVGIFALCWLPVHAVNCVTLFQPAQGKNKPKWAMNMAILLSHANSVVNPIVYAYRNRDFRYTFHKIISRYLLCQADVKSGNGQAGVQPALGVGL
Put plainly: Human 2B Adenosine Receptor CHO-K1 cAMP antagonist functional assay. Type of test: cell-based. Conditions: cAMP antagonist functional assay vs NECA, CHO-K1 cells stably expressing Human A2BR; read-out: A2B (Potency: A2BR KB). How it is done:
Measurement of the Adenosine Receptor Activity of Compounds Using a Human 2B Adenosine Receptor CHO-K1 cAMP Functional Assay
CHO-K1 cells stably expressing Human Adenosine 2B Receptor (A2BR: Cat. No. M000329, GenScript) were purchased from GenScript Inc., Piscataway, NJ 08854, USA.
The cAMP antagonist functional assay (Perkin Elmer) was performed on CHO-K1 cells stably expressing Human A2BR. 1×10^6 cells were seeded in T75 flasks and cultured at 37° C. and 5% CO2 overnight. 2,000-4,000 cells/well of stably-expressed A2bR CHO-K1 cells were then seeded to a white 384-well Opti plate followed by compound 1 incubation at various concentrations (ranging from 1 μM to 0 μM) at 37° C. for 1 hour.
(§1) A 1:2 serial dilution of NECA (Sigma Aldrich) from 1 μM to 0 μM was added to the cell stimulation mixture and incubated for 30 min at 37° C. After 30 min incubation, 5 μL of Ulight-anti-cAMP (1:150 dilution with conjugate and lysis buffer provided by Perkin Elmer) and 5 μL of Eu-cAMP tracer (1:50 dilution with conjugate and lysis buffer provided by Perkin Elmer) was added the cells and incubated for an hour. FRET signal was detected with an Envision multilabel plate reader (Perkin Elmer) loaded with 615 nm […] filters and 665 nm emission filters.
(§2) Data analysis was performed using on GraphPad Prism (version 7.02) to determine the KB of the test compounds.

For the next test, the target named is T2, Human A2AR (Homo sapiens, UniProt P29274).
T2 construct: expressed in transfected cells; host or cells: CHO-T-REx cells, tetracycline-inducible expression
Kind of test: Human 2A Adenosine Receptor (A2aR) CHO-TREx cAMP antagonist functional assay. Conditions: cAMP antagonist functional assay vs NECA, CHO-T-REx cells induced to express Human A2AR; read-out: A2A (Potency: A2AR KB). The test is classed as cell-based. Here is the method:
Measurement of the Adenosine Receptor Activity of Compounds Using a Human 2A Adenosine Receptor (A2aR) CHO-TREx cAMP Functional Assay
The cAMP antagonist functional assay (Perkin Elmer) was performed on CHO-T-REx cells induced to express Human A2AR. Cells were seeded to a white 384-well Opti plate at a density of 1,000 to 2,500 cells per well followed by incubation with various concentrations of compound (ranging from 1 μM to 0 μM) at 37° C. for 1 hour.
as §1, §2

Bounds are passed on as bounds.

T2 sequence (P29274 whole entry): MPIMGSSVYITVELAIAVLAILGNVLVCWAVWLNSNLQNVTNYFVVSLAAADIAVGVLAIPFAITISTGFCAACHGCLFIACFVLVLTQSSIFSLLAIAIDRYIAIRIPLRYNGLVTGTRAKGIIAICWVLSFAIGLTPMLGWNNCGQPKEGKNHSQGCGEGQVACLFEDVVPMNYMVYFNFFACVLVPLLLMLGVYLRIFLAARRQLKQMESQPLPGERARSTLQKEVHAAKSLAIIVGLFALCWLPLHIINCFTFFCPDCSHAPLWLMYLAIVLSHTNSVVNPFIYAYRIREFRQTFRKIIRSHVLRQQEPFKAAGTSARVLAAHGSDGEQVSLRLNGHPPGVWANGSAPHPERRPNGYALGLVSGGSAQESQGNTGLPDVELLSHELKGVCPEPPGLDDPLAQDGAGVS

Turning to `COc1cccc2c(-c3cn(Cc4cccn(CC(C)(C)O)c4=O)nn3)nc(N)nc12` [Example 3], the antagonist dissociation constant (Kb) at Human A2BR and on Human A2AR was less than 100 nM each time.

Take `CCn1cccc(Cn2cc(-c3nc(N)nc4c(OC)cccc34)cn2)c1=O` [Example 40, 3-{[4-(2-Amino-8-methoxy-4-quinazolinyl)-1H-pyrazol-1-yl]methyl}-1-ethyl-1H-pyridin-2-one]: the Kb on Human A2BR was 100 to 1000 nM; on Human A2AR, less than 100 nM.

Consider `COC[C@H](C)n1cccc(Cn2cc(-c3nc(N)nc4c(OC)cccc34)nn2)c1=O` [Example 25], for which the Kb is 100 to 1000 nM at Human A2BR and less than 100 nM at Human A2AR.

In the case of “3-{[4-(2-Amino-8-methoxy-4-quinazolinyl)-1H-1,2,3-triazol-1-yl]methyl}-1-(cyclopropylmethyl)-1H-pyridin-2-one [Example 4]”, the antagonist equilibrium constant (Kb) on Human A2BR is 100 to 1000 nM; at Human A2AR, less than 100 nM.

On to `COc1cccc2c(-c3cn(Cc4cccn([C@H](C)C5CCOCC5)c4=O)nn3)nc(N)nc12` [Example 28], for which the Kb at Human A2BR and on Human A2AR was less than 100 nM throughout.

As to `COc1cccc2c(-c3cn(Cc4cccn([C@H](C)C(C)(C)O)c4=O)nn3)nc(N)nc12` [Example 27, 1-[(R)-2-Hydroxy-1,2-dimethylpropyl]-3-{[4-(2-amino-8-methoxy-4-quinazolinyl)-1H-1,2,3-triazol-1-yl]methyl}-1H-pyridin-2-one], the antagonist equilibrium constant (Kb) at Human A2BR is 100 to 1000 nM; at Human A2AR, less than 100 nM.

In the case of `COc1cccc2c(-c3cn(Cc4cccn(C(C)C)c4=O)nn3)cc(N)nc12` [Example 8], the antagonist equilibrium constant (Kb) at Human A2BR was 100 to 1000 nM; at Human A2AR, less than 100 nM.

As to `COc1cccc2c(-c3cn(Cc4cccn([C@@H](C)C(C)(C)O)c4=O)nn3)nc(N)nc12` [Example 26, 1-[(S)-2-Hydroxy-1,2-dimethylpropyl]-3-{[4-(2-amino-8-methoxy-4-quinazolinyl)-1H-1,2,3-triazol-1-yl]methyl}-1H-pyridin-2-one], the antagonist dissociation constant (Kb) at Human A2BR and on Human A2AR was less than 100 nM throughout.

Take “1-[(S)-Tetrahydro-2H-pyran-3-yl]-3-{[4-(2-amino-8-methoxy-4-quinazolinyl)-1H-1,2,3-triazol-1-yl]methyl}-1H-pyridin-2-one [Example 32]”: the antagonist equilibrium constant (Kb) at Human A2BR and on Human A2AR was less than 100 nM each time.

Regarding `COC[C@@H](C)n1cccc(Cn2cc(-c3nc(N)nc4c(OC)cccc34)nn2)c1=O` [Example 24], the Kb on Human A2BR and at Human A2AR was less than 100 nM throughout.

Consider `COc1cccc2c(-c3cn(Cc4cccn(CC5CCOCC5)c4=O)nn3)nc(N)nc12` [Example 21], for which the Kb at Human A2BR and at Human A2AR was less than 100 nM each time.

For the compound `COc1cccc2c(-c3cn(Cc4cccn([C@@H](C)C5CCOCC5)c4=O)nn3)nc(N)nc12` [Example 29], the Kb on Human A2BR and at Human A2AR was less than 100 nM each time.

On to `Cc1cccc2c(-c3cn(Cc4cccn(C(C)C)c4=O)nn3)nc(N)nc12` [Example 6], for which the Kb on Human A2BR and on Human A2AR was less than 100 nM throughout.

Broadly, the Kb is the equilibrium dissociation constant of an antagonist, usually derived from a functional assay.

Source of the values: patent US12064433B2 (ARCUS BIOSCIENCES, INC., priority 2018, dated 2024).
